Measurements: US10906899B2, “Bicyclic fused pyrazole derivatives for the treatment of RSV” (GEORGIA STATE UNIVERSITY RESEARCH FOUNDATION, INC., priority 2016, dated 2021)
Like-named read-outs stand apart in the source and are kept apart here.

Tested on: RSV
Experiment: Dose-response counterscreen: luciferase reporter virus infection of BEAS-2B cells (EC50)
Type: cell-based, respiratory syncytial virus (RSV)
Settings: human respiratory syncytial virus, read-out: Potency Range (EC50 values)
[1] = A series compounds, anti-RSV potency

Row | SMILES | EC50 [1] | EC50 (B series compounds)
1 | COc1ccc(C2CC(=O)Nc3c2cnn3-c2ccccc2)cc1OC1CCCC1 (stereo not shown) [AVG-065, 4-(3-(cyclopentyloxy)-4-methoxyphenyl)-1-phenyl-4,5-dihydro-1H-pyrazolo[3,4-b] pyridin-6(7H)-one] | 10 to 20 µM | –
2 | CCc1c2c(=O)n(-c3nc4ccccc4s3)n(Cc3ccccc3)c2cc(=O)n1Cc1cccc(Cl)n1 [AVG-165] | – | 1 to 10 µM
3 | Cc1c2c(=O)n(-c3nc4ccccc4s3)n(C(C)c3ccccc3)c2cc(=O)n1Cc1ccccn1 (stereo not shown) [AVG-135] | – | 10 to 20 µM
4 | COc1ccc(C2CC(=O)Nc3nn(-c4ccccc4)cc32)cc1OC1CCCC1 (stereo not shown) [AVG-065b] | 1 to 10 µM | –
